According to patent US10479792B2, “Compounds” (GlaxoSmithKline Intellectual Property Development Limited, priority 2015, dated 2019):

What was measured:
[1] = tested on: Trypanosoma brucei; experiment: Trypanosoma brucei cell growth inhibition assay (Assay 3); assay type: cell-based, T. b. brucei, BSF427, VSG118; settings: 69 h + 4 h resazurin, read-out: pEC50 value against Trypanosoma brucei (converted)
Protocol: Assay 3. Trypanosoma brucei Cell Growth Inhibition Assay
Measurement of the ability of the compounds to inhibit trypanosome (T. b. brucei, BSF427, VSG118) cell growth was performed using a modification of the cell viability assay previously described by Raz et al. (Raz B.; Iten M.; Grether-Buhler Y.; Kaminski R.; Brun R. The Alamar Blue assay to determine drug sensitivity of African trypanosomes (T. b. rhodesiense and T. b. gambiense) in vitro. Acta Trop. 1997, 68, 139-147). Compounds were dissolved in DMSO at a top concentration of 10 mM and serially diluted in half log steps to achieve a range of final assay concentrations of 50 μM to 0.5 nM. Compound at each concentration (200-fold final) was added to clear 96-well tissue culture plates in a volume of 1 μL. […] Plates were then read on a BioTek flx800 fluorescent plate reader, and percentage inhibition was compared to the maximum and minimum assay controls. Concentration effect curves were fitted using nonlinear regression using XLFit 4.2 and EC50 values determined.

[2] = tested on: RnH9c2 cells; experiment: Trypanosoma cruzi intracellular assay (Assay 2), host cell cytotoxicity; assay type: cell-based; settings: rat, H9C2 cardiomyocytes infected with Trypanosoma cruzi, 72 h incubation, read-out: cytotoxicity against RnH9c2 cells, pEC50 (converted)
Protocol: (§1) Compounds were dispensed into black 384-well assay plates (Greiner) by acoustic dispensing (LabCyte ECHO). For potency determinations, eleven-point, one in three dilution curves were generated, with a top concentration of 50 μM. H9C2 rat cardiomyocytes cells were dispensed in T225 tissue culture flasks and after 4 hours they were infected during 18 hours with T. cruzi trypomastigotes in the same T225 tissue culture flasks at a multiplicity of infection of 1. Next, any remaining free trypomastigotes were washed away with PBS and the infected H9C2 cells were harvested by trypsinisation. The infected H9C2 cells were then plated into 384-well plates containing the compounds to be tested, at 2500 cells per well in DMEM media with 2% FBS, 1% Penicillin/Streptomicin, 2 mM L-Glutamine, 1 mM Na Pyruvate and 25 mM HEPES. After 72 h incubation at 37° C. in presence of 5% CO2, the plates were fixed and stained with 4% formaldehyde and 2 μM Draq5 for 3 hours at room temperature. The plates were imaged on a Perkin Elmer Opera high-content imaging system using a 20× air objective. Images were analyzed using the Acapella building blocks system (Perkin Elmer). The image analysis algorithm first identified the H9C2 nuclei followed by demarcation of the cytoplasm and identification of intracellular amastigotes. This algorithm reported mean number of parasites per H9C2 cell, the percentage of infected H9C2 cells and the total number of H9C2 cells.

[3] = tested on: Trypanosoma cruzi; experiment: Trypanosoma cruzi intracellular assay (Assay 2); assay type: cell-based; settings: infected H9C2 rat cardiomyocytes, 72 h incubation, read-out: pEC50 value against Trypanosoma cruzi (converted)
Protocol: as §1

[4] = tested on: THP-1 cells; experiment: Intramacrophage Leishmania donovani assay (Assay 1), THP-1 cell count (cytotoxicity readout); assay type: cell-based; settings: human, 96 h incubation, read-out: cytotoxicity against THP-1 cells, pEC50 (converted)
Protocol: Assay 1. Intramacrophage Leishmania donovani Assay
The intramacrophage Leishmania assay was performed using a modified version of the method described in De Rycker et al. (Antimicrob Agents Chemother. 2013 July; 57(7):2913-22. Comparison of a high-throughput high-content intracellular Leishmania donovani assay with an axenic amastigote assay. De Rycker M, Hallyburton I, Thomas J, Campbell L, Wyllie S, Joshi D, Cameron S, Gilbert I H, Wyatt P G, Frearson J A, Fairlamb A H, Gray D W.). Procedure: 350 nl of compound was pre-dispensed into 384 well sterile intermediary plates. For single point screening, amphotericin B was added to all wells of column 24 as a positive control (final concentration 2 μM) and DMSO to column 23. For potency determinations, ten-point, one in three dilution curves were created with the highest concentration being 50 μM and on each plate a control curve of amphotericin B was included. Controls were as follows: columns 11 and 12: DMSO, columns 23 and 24: amphotericin B (final concentration 2 μM). To the intermediary plates, 35 μl of THP-1 media was added and plates were shaken for >5 min to ensure complete mixing. […] For each well, i) THP-1 cell count (cytotoxicity readout) and ii) average number of amastigotes per cell (potency readout) were calculated, both in terms of pEC50 values.

## O=C(Nc1ccc(F)c(-c2ccn3c(N4CCOCC4)cnc3n2)c1)N1CCCC1 [Example 4, N-(4-fluoro-3-(3-morpholinoimidazo[1,2-a]pyrimidin-7-yl)phenyl)pyrrolidine-1-carboxamide]
[1]
  EC50: 10 nM
[2]
  EC50 at 72 h: > 50100 nM
[3]
  EC50: 39.8 nM
[4]
  EC50 at 96 h: > 50100 nM
